In patent US20190249218A1, “Method, Medium and Kit for Detecting Multiple Aminoglycoside Resistance Including 16S rRNA Methylase Mediated Resistance in Gram-Negative Bacteria” (priority 2016, published 2019):

Columns and labels:
Experiment in all cases: MIC by broth microdilution
E. coli = type: cell-based, Escherichia coli
Procedure: (§1) MICs of amikacin and gentamicin were determined using the broth microdilution method in cation-adjusted Mueller-Hinton broth, as recommended by the Clinical Laboratory Standard Institute (CLSI) guidelines (8). Amikacin and gentamicin sulfate (Fluorochem, Dertbyshire, UK) were tested over a range of dilutions from 0.25 to 256 μg/ml. A final inoculum of 5.10^5 CFU/ml of each strain was distributed in the 96 wells tray (Sarstedt, Ntimbrecht, Germany). All experiments were repeated in triplicate and E. coli ATCC 25922 was used as quality control. According to the CLSI breakpoints (9), Enterobacteriaceae isolates with gentamicin MICs≤4 and amikacin MICs≤16 mg/L were categorized as susceptible, while those with gentamicin MICs≥16 and amikacin MICs≥64 mg/L were categorized as resistant.
(§2) MICs of amikacin and gentamicin were determined as described above in Example 1.

P. stuartii = type: cell-based, Providencia stuartii
Procedure: as §1, §2

P. aeruginosa = type: cell-based, Pseudomonas aeruginosa
Procedure: as §1, §2

P. rettgeri = type: cell-based, Providencia rettgeri; conditions: AAC(2′)
Procedure: as §1, §2

E. cloacae = type: cell-based, Enterobacter cloacae
Procedure: as §1, §2

P. mirabilis = type: cell-based, Proteus mirabilis
Procedure: as §1, §2

S. marcescens = type: cell-based, Serratia marcescens; conditions: AAC(3)-I
Procedure: as §1, §2

A. baumannii = type: cell-based, Acinetobacter baumannii
Procedure: as §1, §2

[1] = isolate 92/31, E. coli, AAC(3)-IV
[2] = isolate 1488, E. coli, AAC(6′)-II
[3] = isolate 4000, E. coli, APH(3′)-I + AAC(3)-V
[4] = isolate FR136, E. coli ATCC 25922, AG susceptible
[5] = isolate R1436, E. coli, AG susceptible
[6] = isolate R1438, E. coli, AG susceptible
[7] = isolate R2278, E. coli ATCC 35218, AG susceptible
[8] = isolate R4100, E. coli TOP10, npmA
[9] = isolate RP4, E. coli, APH(3′)-Ib
[10] = isolate pFCT1163, E. coli, AAC(6′)-Ia
[11] = isolate pFCT4392, E. coli, AAC(3)-Ia
[12] = isolate BM2667, P. stuartii, APH(3′)-VI + AAC(2′)
[13] = isolate R265, P. stuartii, rmtC
[14] = isolate 1110, E. cloacae, ANT(2″)
[15] = isolate HM, E. cloacae, AG susceptible
[16] = isolate R713, E. cloacae, AG susceptible
[17] = isolate R1433, E. cloacae, AG susceptible
[18] = isolate R2258, E. cloacae, armA
[19] = isolate R2260, P. mirabilis, AG susceptible

Gentamicin was tested, and the “Gentamicin Phenotype” value (E. coli; isolate 62Carb, E. coli, rmtB) was “R (gentamicin MICs≥16)”, the “Gentamicin Phenotype” value (E. coli; [1]) was “R (gentamicin MICs≥16)” and the MIC (E. coli; [1]) was 16 µg/mL. For the same substance, the “Gentamicin Phenotype” value (E. coli; isolate 97, E. coli, AAC(3)-IV) was “R (gentamicin MICs≥16)”, the MIC (E. coli; isolate 97, E. coli, AAC(3)-IV) was 32 µg/mL and the “Gentamicin Phenotype” value (E. coli; isolate 390, E. coli, AAC(3)-IV) was “R (gentamicin MICs≥16)”. For the same substance, the MIC (E. coli; isolate 1054 (first entry), E. coli, AAC(6′)-I) was 8 µg/mL, the MIC (E. coli; isolate 1054 (second entry), E. coli, AAC(6′)-I) was 8 µg/mL and the “Gentamicin Phenotype” value (E. coli; [2]) was “R (gentamicin MICs≥16)”. The MIC (E. coli; [2]) was 16 µg/mL, the “Gentamicin Phenotype” value (E. coli; [3]) was “R (gentamicin MICs≥16)” and the MIC (E. coli; [3]) was 64 µg/mL. The “Gentamicin Phenotype” value (E. coli; isolate 22089, E. coli, AAC(3)-I + AAC(3)-V) was “R (gentamicin MICs≥16)”, the “Gentamicin Phenotype” value (E. coli; isolate 122971, E. coli, ANT(2″)) was “R (gentamicin MICs≥16)” and the “Gentamicin Phenotype” value (E. coli; isolate E28, E. coli, rmtB) was “R (gentamicin MICs≥16)”. The “Gentamicin Phenotype” value (E. coli; [4]) was “S (gentamicin MICs≤4)”, the MIC (E. coli; [4]) was 0.5 µg/mL and the “Gentamicin Phenotype” value (E. coli; isolate R107, E. coli, rmtB) was “R (gentamicin MICs≥16)”. The “Gentamicin Phenotype” value (E. coli; isolate R262, E. coli, rmtC) was “R (gentamicin MICs≥16)”, the “Gentamicin Phenotype” value (E. coli; isolate R451, E. coli, rmtC) was “R (gentamicin MICs≥16)” and the “Gentamicin Phenotype” value (E. coli; isolate R989, E. coli, armA) was “R (gentamicin MICs≥16)”. For the same substance, the “Gentamicin Phenotype” value (E. coli; isolate R990, E. coli, rmtB) was “R (gentamicin MICs≥16)”, the “Gentamicin Phenotype” value (E. coli; isolate R1012, E. coli, armA) was “R (gentamicin MICs≥16)” and the “Gentamicin Phenotype” value (E. coli; [5]) was “S (gentamicin MICs≤4)”. For the same substance, the MIC (E. coli; [5]) was 1 µg/mL, the “Gentamicin Phenotype” value (E. coli; [6]) was “S (gentamicin MICs≤4)” and the MIC (E. coli; [6]) was 1 µg/mL. For the same substance, the “Gentamicin Phenotype” value (E. coli; [7]) was “S (gentamicin MICs≤4)”, the MIC (E. coli; [7]) was 1 µg/mL and the “Gentamicin Phenotype” value (E. coli; [8]) was “R (gentamicin MICs≥16)”. The MIC (E. coli; [8]) was 64 µg/mL, the “Gentamicin Phenotype” value (E. coli; [9]) was “S (gentamicin MICs≤4)” and the MIC (E. coli; [9]) was 1 µg/mL. The “Gentamicin Phenotype” value (E. coli; [10]) was “S (gentamicin MICs≤4)”, the MIC (E. coli; [10]) was 4 µg/mL and the “Gentamicin Phenotype” value (E. coli; [11]) was “R (gentamicin MICs≥16)”. The MIC (E. coli; [11]) was 32 µg/mL, the “Gentamicin Phenotype” value (E. coli; isolate pWP701, E. coli, AAC(3)-IV) was “R (gentamicin MICs≥16)” and the MIC (E. coli; strain 92/31, E. coli, AAC(3)-IV) was 16 µg/mL. The MIC (E. coli; strain 97, E. coli, AAC(3)-IV) was 32 µg/mL, the MIC (E. coli; strain 1054a, E. coli, AAC(6′)-I) was 8 µg/mL and the MIC (E. coli; strain 1054b, E. coli, AAC(6′)-I) was 8 µg/mL. For the same substance, the MIC (E. coli; strain 1488, E. coli, AAC(6′)-II) was 16 µg/mL, the MIC (E. coli; strain 4000, E. coli, APH(3′)-I + AAC(3)-V) was 64 µg/mL and the MIC (E. coli; strain R1436, E. coli, susceptible) was 1 µg/mL. It also gave an MIC (E. coli; strain R1438, E. coli, susceptible) of 1 µg/mL, an MIC (E. coli; strain R2278, E. coli ATCC 35218, susceptible) of 1 µg/mL and an MIC (E. coli; strain R2298, E. coli ATCC 25922, susceptible) of 1 µg/mL. For the same substance, the MIC (E. coli; strain R4100, E. coli, npmA) was 258 µg/mL, the MIC (E. coli; strain RP4, E. coli, APH(3′)-Ib) was 2 µg/mL and the MIC (E. coli; strain pFCT1163, E. coli, AAC(6′)-Ia) was 4 µg/mL. The MIC (E. coli; strain pFCT4392, E. coli, AAC(3)-Ia) was 32 µg/mL, the “Gentamicin Phenotype” value (P. stuartii; [12]) was “S (gentamicin MICs≤4)” and the MIC (P. stuartii; [12]) was 8 µg/mL. The “Gentamicin Phenotype” value (P. stuartii; isolate R38, P. stuartii, rmtC) was “R (gentamicin MICs≥16)”, the MIC (P. stuartii; isolate R38, P. stuartii, rmtC) was >256 µg/mL and the “Gentamicin Phenotype” value (P. stuartii; [13]) was “R (gentamicin MICs≥16)”. For the same substance, the MIC (P. stuartii; [13]) was >256 µg/mL, the MIC (P. stuartii; strain BM2667, P. stuartii, APH(3′)-VI + AAC(2′)) was 16 µg/mL and the MIC (P. stuartii; strain R38, P. stuartii, rmtC) was >256 µg/mL. The MIC (P. stuartii; strain R265, P. stuartii, rmtC) was >256 µg/mL, the MIC (P. aeruginosa; strain 3655, P. aeruginosa, APH(3′)-I + ANT(2″)) was 4 µg/mL and the MIC (P. aeruginosa; strain 3656, P. aeruginosa, APH(3′)-I + ANT(4′)-II) was 8 µg/mL. The MIC (P. aeruginosa; strain 3658, P. aeruginosa, APH(3′)-I + ANT(4′)-II) was 4 µg/mL, the MIC (P. aeruginosa; strain 28233, P. aeruginosa, APH(3′)-I + AAC(3)-I) was 1 µg/mL and the MIC (P. aeruginosa; strain R191, P. aeruginosa, susceptible) was 2 µg/mL. For the same substance, the “Gentamicin Phenotype” value (P. rettgeri; isolate 531, P. rettgeri) was “S (gentamicin MICs≤4)”, the MIC (P. rettgeri; isolate 531, P. rettgeri) was 4 µg/mL and the MIC (P. rettgeri; strain 531, P. rettgeri) was 4 µg/mL. For the same substance, the “Gentamicin Phenotype” value (E. cloacae; [14]) was “R (gentamicin MICs≥16)”, the MIC (E. cloacae; [14]) was 32 µg/mL and the “Gentamicin Phenotype” value (E. cloacae; [15]) was “S (gentamicin MICs≤4)”. The MIC (E. cloacae; [15]) was 2 µg/mL, the “Gentamicin Phenotype” value (E. cloacae; [16]) was “S (gentamicin MICs≤4)” and the MIC (E. cloacae; [16]) was 0.5 µg/mL. For the same substance, the “Gentamicin Phenotype” value (E. cloacae; [17]) was “S (gentamicin MICs≤4)”, the MIC (E. cloacae; [17]) was 2 µg/mL and the “Gentamicin Phenotype” value (E. cloacae; [18]) was “R (gentamicin MICs≥16)”. The MIC (E. cloacae; [18]) was >256 µg/mL, the MIC (E. cloacae; strain 1110, E. cloacae, ANT(2″)) was 32 µg/mL and the MIC (E. cloacae; strain HM, E. cloacae, susceptible) was 2 µg/mL. The MIC (E. cloacae; strain R713, E. cloacae, susceptible) was 0.5 µg/mL, the MIC (E. cloacae; strain R1433, E. cloacae, susceptible) was 2 µg/mL and the MIC (E. cloacae; strain R2258, E. cloacae, armA) was >256 µg/mL. For the same substance, the “Gentamicin Phenotype” value (P. mirabilis; [19]) was “S (gentamicin MICs≤4)”, the MIC (P. mirabilis; [19]) was 4 µg/mL and the MIC (P. mirabilis; strain R263, P. mirabilis, armA) was >256 µg/mL. The MIC (P. mirabilis; strain R2260, P. mirabilis, susceptible) was 4 µg/mL, the “Gentamicin Phenotype” value (S. marcescens; isolate 4290, S. marcescens) was “R (gentamicin MICs≥16)” and the MIC (S. marcescens; isolate 4290, S. marcescens) was 64 µg/mL. The MIC (S. marcescens; strain 4290, S. marcescens) was 64 µg/mL, the MIC (A. baumannii; strain 4996, A. baumannii, AAC(6′)-I) was 4 µg/mL and the MIC (A. baumannii; strain 8541, A. baumannii, APH(3′)-VI) was 0.5 µg/mL. The MIC (A. baumannii; strain BM2580, A. baumannii, APH(3′)-VI) was 2 µg/mL, the MIC (A. baumannii; strain R264, A. baumannii, armA) was >256 µg/mL and the MIC (A. baumannii; strain R1395, A. baumannii, susceptible) was 1 µg/mL.
